Test results published in patent publication US20250332152A1, “INHALED THERAPY FOR CARDIAC ARRHYTHMIA” (InCarda Therapeutics, Inc., priority 2021, published 2025).

Experiments:
[1] = system: recent-onset symptomatic AF; assay: Clinical study: cardioversion of recent-onset atrial fibrillation to sinus rhythm with orally inhaled flecainide; format: in vivo, human; conditions: 120 mg flecainide acetate (eTLD) by oral inhalation; for conversion rate (AF to sinus rhythm): cardioversion success at 90 minutes post-dose
Procedure: A flecainide acetate oral inhalation solution for acute cardioversion of recent-onset symptomatic AF was administered to 80 patients to determine if height, weight, and body mass index (BMI) are predictors of successful cardioversion of AF to sinus rhythm (SR) with the inhalation solution.
The flecainide formulation used in this study is described in TABLE 1.
In this study, for inhalation delivery of flecainide, an estimated total lung dose (eTLD) of 120 mg were calculated to account for losses of flecainide in the inhalation device and losses of flecainide in subjects' mouth and throat. An 120 mg eTLD was thereby used to denote the dose that actually reached the lungs of the subjects. By design, in all nebulizers there can be a residual volume or mass of drug solution that stays in the nebulizer, and there can also be a percentage of the aerosol caught by subject's throat and mouth. For instance, in this study, it was estimated that 30% of the aerosol was lost in subject's throat and mouth. Therefore the eTLD would be: eTLD=(100-30) %*amount of aerosolized drug that left nebulizer=70%*(amount of drug placed in nebulizer−amount of drug staying in nebulizer).
The AeroEclipse®II BAN inhaler was used for nebulization and inhalation of the exemplary flecainide formulations. It is available as an approved device in several countries across the world including European countries, USA, and Canada. The inhaler is a hand-held, breath actuated, jet nebulizer which operates through a source of compressed air available as medical air in the hospital ER. The AeroEclipse®BAN delivers a high respirable dose and an optimal particle size to reach the deeper lung regions to enable faster drug absorption. Flecainide acetate inhalation solution was transferred from the vial into the reservoir of the AeroEclipse®II BAN at a volume corresponding to the required dose to the lung. To administer an estimated total lung dose of […] flecainide acetate, the nebulizer was filled with 4.2 mL of Formulation A described in TABLE 1. The total volume filled in each dosing cup was based on the assumption of a 70% (v/v) lung deposition, a 12.5% (v/v) loss due to fugitive aerosol based on in-vitro experiments, and device retention of approximately 1.5 mL of the solution.
Participants in the study were administered the study medications according to the following guidelines: • Subject self-administers inhalation using the AeroEclipse® II BAN • Subject is seated upright in a comfortable chair or adjustable bed with table that has adjustable height in front (e.g. overbed table on casters) where the subject can rest his/her arms (e.g. overbed table on casters) from approximately 30 minutes prior to the start of inhalation up to at least 15 minutes after the last inhalation is completed. […]

[2] = Flecainide peak plasma concentration (Cmax) versus BMI classification in atrial fibrillation patients; format: in vivo, human; conditions: atrial fibrillation patients (n=81); 120 mg flecainide acetate via oral inhalation; both conversion and no conversion cohorts
Procedure: Logistic regression was performed to identify predictors of cardioversion success at 90 minutes post-dose, and potential interactions were examined by linear regression.
FIG. 6 is a chart depicting median Cmax versus BMI classification (normal (BMI<25), overweight (BMI≥25 and <30), obese/severe obese (BMI≥30)) in atrial fibrillation patients (n=81) administered 120 mg flecainide acetate via oral inhalation.

[3] = Solubility of flecainide acetate in water solution; format: physicochemical

SMILES: O=C(NCC1CCCCN1)c1cc(OCC(F)(F)F)ccc1OCC(F)(F)F (stereo not drawn) [flecainide acetate]
- conversion rate (AF to sinus rhythm) ([1]; obese patients (BMI≥30 and <35 kg/m^2)): 43%
- conversion rate (AF to sinus rhythm) ([1]; overweight patients (BMI≥25 and <30 kg/m^2)): 47%
- conversion rate (AF to sinus rhythm) ([1]; patients with normal BMI (<25 kg/m^2)): 53%
- AF successfully converted to sinus rhythm ([1]; severely obese patients, 90 minutes post-dose): none
- median flecainide peak plasma concentration (Cmax) versus BMI category [2]: positive correlation
- solubility [3]: ~60 mg/mL
